Columns and labels:
Conditions in all cases: in vivo; call rule not given here
[1] = species on record: Canis familiaris; experiment: Drug metabolism in dog assessed as beta-oxidation derivative formation; assay type: ADME, organism-based, Canis lupus familiaris
[2] = species on record: Rattus norvegicus; experiment: Drug metabolism in rat assessed as beta-oxidation derivative formation; assay type: ADME, organism-based
[3] = species on record: Canis familiaris; experiment: Drug metabolism in dog assessed as biphenylylcarboxylic acid derivative formation measured in feces; assay type: ADME, organism-based, Canis lupus familiaris
[4] = species on record: Rattus norvegicus; experiment: Drug metabolism in rat assessed as taurine conjugate formation measured in feces; assay type: ADME, organism-based
[5] = species on record: Canis familiaris; experiment: Drug metabolism in dog assessed as taurine conjugate formation measured in feces; assay type: ADME, organism-based, Canis lupus familiaris
[6] = species on record: Rattus norvegicus; experiment: Drug metabolism in rat assessed as biphenylylcarboxylic acid derivative formation in feces; assay type: ADME, organism-based
[7] = species on record: Rattus norvegicus; experiment: Drug metabolism in rat assessed as biphenylylcarboxylic acid derivative formation; assay type: ADME, organism-based
[8] = species on record: Rattus norvegicus; experiment: Drug metabolism in rat assessed as taurine conjugate formation measured in bile; assay type: ADME, organism-based
[9] = species on record: Canis familiaris; experiment: Drug metabolism in dog assessed as acyl glucuronide derivative formation measured in feces; assay type: ADME, organism-based, Canis lupus familiaris
[10] = species on record: Rattus norvegicus; experiment: Drug metabolism in rat assessed as acyl glucuronide derivative formation measured in feces; assay type: ADME, organism-based
[11] = species on record: Rattus norvegicus; experiment: Drug metabolism in rat assessed as acyl glucuronide derivative formation in bile; assay type: ADME, organism-based

Drug metabolism [1]: Not Active
Drug metabolism [2]: Not Active
Drug metabolism [3]: Active
Drug metabolism [4]: Active
Drug metabolism [5]: Active
Drug metabolism [6]: Active
Drug metabolism [7]: Active
Drug metabolism [8]: Active
Drug metabolism [9]: Active
Drug metabolism [10]: Active
Drug metabolism [11]: Active
Structure (SMILES): Cc1cc(OCCCS(C)(=O)=O)cc(C)c1-c1cccc([14CH2]Oc2ccc3c(c2)OC[C@H]3CC(=O)O)c1
